Laboratory results published in US8288107B2, “Materials and methods for detecting interaction of CFTR polypeptides” (Florida State University Research Foundation, priority 1999, dated 2012).

Experiments:
YRG2-WT strain = assay: Colony formation on SC-HIS-LEU-TRP media, YRG2-WT strain; format: cell-based, yeast; conditions: 1.5 mM in SC-HIS-LEU-TRP media; 30° C.; three days
Protocol: (§1) When the YRG2-ΔF strain was streaked onto solid media (SC-HIS, -LEU, -TRP) and incubated at 21° C., colonies formed within three days (Table 2). The YRG2-ΔF colonies were approximately the same size as colonies produced by YRG2-WT grown under the same conditions. However, when YRG2-ΔF was streaked onto SC-HIS-LEU-TRP solid media and incubated at 30° C., only small colonies were apparent after three days (substantially smaller in size than YRG2-WT colonies grown under the same growth conditions). Colonies were not apparent (or were detectable only as extremely small micro-colonies) when YRG2-ΔF was streaked onto solid SC-HIS, -LEU, -TRP media and incubated at 34° C. The ΔF508 mutation thus conferred a temperature-sensitive HIS+ phenotype to the yeast strain containing pADPN-ΔF and pBDPN-ΔF. To further enhance the temperature-sensitive HIS− colony phenotype of the YRG2-ΔF strain relative to the YRG2-WT strain, it is advantageous to incorporate 3-amino-1,2,4-triazole at a concentration of 1.5 mM into the SC-HIS-LEU-TRP media.

YRG2-ΔF strain = assay: Colony formation on SC-HIS-LEU-TRP media, YRG2-ΔF strain; format: cell-based, yeast; conditions: 1.5 mM in SC-HIS-LEU-TRP media; 30° C.; three days
Protocol: as §1
To use the YRG2-ΔF strain for screening purposes, a lawn of the YRG2-ΔF strain is spread onto selective media. This media contains yeast nitrogen base and all amino acids except for histidine, leucine, and tryptophan. The media also contains 3-amino 1,2,4-triazole at a concentration of 1.5 mM. […]

[1] = target: T1, NBD1 ΔF508 domain of CFTR (dimerization) (Homo sapiens, UniProt P13569, DEL508-508/V470M); assay: Yeast two-hybrid growth assay with YRG2-ΔF strain on selective media lacking histidine; format: cell-based; conditions: 1.5M glycerol in growth media; 37° C.; media lacking leucine, tryptophan and histidine
T1 construct: expressed in transfected cells; host or cells: Saccharomyces cerevisiae strain YRG2 (Stratagene), transformed with pBDPN-ΔF and pADPN-ΔF = YRG2-ΔF
Protocol: FIGS. 2A-2C show growth of two-hybrid yeast strains containing wildtype and mutant CFTR NBD1. The yeast strain YRG2 was transformed with pADGAL4 and pBDGAL4 constructs containing wildtype and mutant CFTR NBD1 as indicated. Each strain was grown in synthetic complete media lacking leucine and tryptophan, and equal aliquots of cells in 10-fold dilutions were spotted to synthetic complete media lacking leucine, tryptophan and histidine. Dilutions for each strain proceed from right to left, with the spots from most dilute cultures corresponding to the tapered end of the triangle. Plates were incubated at either 21° C. (FIG. 2A) or 37° C. (FIG. 2B) (for 3 days and 5 days respectively). Glycerol was added to the media to a final concentration of 1.5 M as indicated (1.5 M Glyc) (FIG. 2C).
The present invention concerns methods for screening chemical compounds for drug candidates with activity to correct the dimerization defect associated with mutant CFTR NBD1 containing the ΔF508 mutation. […] If the sample tested is a pure compound, the compound can then be analyzed further in secondary assays to determine its activity to restore CFTRΔF508 cAMP-stimulated chloride channel activity in mammalian cells expressing CFTRΔF508 (Sheppard et al., 1994). […]

T1 sequence (P13569 with tags, fused parts or gaps V470M/DEL508-508): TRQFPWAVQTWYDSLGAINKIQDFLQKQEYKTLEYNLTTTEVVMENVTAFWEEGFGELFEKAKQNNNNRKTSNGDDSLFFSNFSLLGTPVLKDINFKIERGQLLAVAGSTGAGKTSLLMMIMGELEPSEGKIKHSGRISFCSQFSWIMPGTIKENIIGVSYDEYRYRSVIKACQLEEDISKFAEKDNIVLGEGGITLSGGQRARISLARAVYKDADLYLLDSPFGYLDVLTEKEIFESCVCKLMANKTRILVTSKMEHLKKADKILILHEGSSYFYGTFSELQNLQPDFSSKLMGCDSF
T1 sequence (P13569 with tags, fused parts or gaps V470M/DEL508-508): as above

Row | rescue of temperature-sensitive dimerization of mutant NBD1 containing ΔF508 [1] | Compound | colony formation of YRG2-WT strain (YRG2-WT strain) | colony formation of YRG2-ΔF strain (YRG2-ΔF strain)
1 |  | Nc1nc[nH]n1 [3-amino-1,2,4-triazole] | does not inhibit colony formation | prevents colony formation
2 | rescued | OCC(O)CO [glycerol] |  | 
